Assay results as given in patent US12312599B2, “Methods, compositions, and kits for producing beige adipocytes and treating metabolic disorders” (MaineHealth, priority 2018, dated 2025).

Columns and labels:
Assay type in all cases: cell-based, human
iPSCs = assay: Mesoderm induction of iPSCs: FOXF1 and IRX3 expression
Procedure: PSCs were cultured in monolayer on hESC-qualified Matrigel-coated plates (Corning) and expanded in NutriStem hPSC XF Medium (Stemgent) and passaged with ReLeSR passaging reagent (STEMCELL Technologies). For mesoderm induction (Day 0), PSC colonies was dissociated with TrypLE cell dissociation reagent (Thermofisher) and plated on Matrigel coated plates in NutriStem medium containing 10 μM Y-27632 Rho kinase inhibitor (Calbiochem). The following day (Day 1), NutriStem medium was replaced with STEMdiff Mesoderm Induction Medium (MIM) (STEMCELL Technologies) and changed each day until day 5.
Note: Only use Y-27632 stock solutions that have been resuspended in DMSO. […] Conduct Mesoderm induction of iPSC in a laminar flow cabinet. • 3. Expand cells in NutriStem hPSC XF Medium overnight and change 100% of the medium without Y-27632 every 24 hours in a laminar flow cabinet for cell culture. When changing media, tilt plate up and allow media to pool at the bottom of wells. Aspirate the pooled medium without touching the surface of the plate. Replace with medium warmed to room temperature by pipetting 2 ml down the side of the wells. Cell Passaging • 1. Expand cell colonies until they have reached 70-80% confluence in high-density areas of the wells. High-density accumulation can occur along the edges of the well as well as the middle. Cells permitted to reach high density will lose their potential for differentiation after multiple passages. • 2. Prior to cell passage, warm cell wash buffer and NutriStem hPSC XF Medium to room temperature. Conduct cell passage in a laminar flow cabinet. • 3. Aspirate NutriStem hPSC XF Medium from wells with vacuum aspirator and wash with PBS without calcium or magnesium. Remove PBS and add 1 ml of ReLeSR reagent to side of well. Agitate plate to allow ReLeSR reagent to spread evenly on the surface. • 4. Aspirate ReLeSR reagent with vacuum aspirator after 30 seconds, which will leave behind a thin film of liquid. Incubate plate at 37° C. for 5-8 minutes undisturbed. • 5. Add fresh NutriStem hPSC XF Medium to wells and gently remove the cell colonies from the plate. Check that most cells have been dislodged from the plate surface with a light microscope. If not, rewash with more medium as needed. • 6. Transfer cell colony suspension in NutriStem hPSC XF Medium to Matrigel coated culture plates for further expansion (see Cell plating and culture above). Generation of iPSC Derived MSCs Mesoderm Induction of iPSC • 1. When iPSCs have reached 70-80% confluence, they will need to be passaged as single cells rather than colonies prior to mesoderm induction (day 0). • 2. Prepare for passage by warming cell wash buffer and NutriStem hPSC XF medium to room temperature and add Y-27632 Rho kinase inhibitor to medium at a final concentration of 10 μM. […]

iPSC-beige adipocytes [1] = assay: UCP1 qPCR after β3-adrenergic stimulation of iPSC-beige adipocytes
iPSC-beige adipocytes [2] = assay: Fatty acid uptake assay; conditions: adipocytes whitened 6 days without rosiglitazone
Procedure: Following washes, add secondary antibody diluted at a ratio of 1:1200 and incubate 2 hours at room temperature. • 5. Remove secondary antibody solution and wash 3 times with TBS with Tween 20 (5 minutes per wash). • 6. Develop membrane with Clarity™ Western ECL Substrate and detect using a Bio-Rad ChemiDoc Touch Imaging System. • 7. Quantitation of protein was performed using Image Lab software (Bio-Rad). Fatty Acid Uptake Assay Preparation • 1. Expand and grow iPSC-beige and whitened iPSC-beige adipocytes to full maturity in a 96 well plate (day 12) (see Generation of beige adipocytes above). To whiten iPSC-beige adipocytes for this assay, induce iPSC-MSCs for three days in the induction cocktail as described in the differentiation protocol (see Generation of beige adipocytes above). Following three days of induction, replace beige induction medium with DMEM containing 10% FBS and insulin ([…]). Change 100% of medium every 3 days until full maturity (day 12). • 2. On day 12, replace culture medium with DMEM containing 10% FBS. Change 100% of medium every 2 days for 6 days. • 3. Following 6 days of rest, remove culture medium and replace with […] of serum free DMEM containing 0.2% BSA. Incubate the plate at 37° C. in a 5% CO2 incubator for 1 hour. • 4. After 1 hour, add CL316,243 ([…]) to designated wells. Allow cells to incubate for 2 hours. • 5. […] Quantification and Statistical Analysis

iPSC-beige adipocytes [3] = assay: Seahorse XF oxygen consumption after β3-adrenergic stimulation; conditions: adipocytes whitened 4 days without rosiglitazone, CL316,243 for 4 hr
FD-MSCs = assay: Beige adipogenic precursor markers in FD-MSCs (flow cytometry, immunostaining, qPCR); conditions: 2 days pretreatment
Procedure: All assays were performed between 7 and 15 passages. For osteocyte differentiation, mature MSCs were grown in 24 well culture plates to 100% confluency in MesenCult-ACF and induced to differentiate in OsteoLife Complete Osteogenesis Medium (Lifeline Cell Technology) for 21 days prior to staining with Lifeline Alizarin Red Stain to visualize calcium deposition. For chondrocyte differentiation. For beige adipogenic precursor generation, cells were grown in 24 well culture plates to 90% confluence and treated with 5 uM SB413542 (Sigma) and 10 nM human IL-4 (Peprotech) for 2 days. For beige adipogenic induction, adipogenic precursors are differentiated for 3 days with adipogenic medium consisting of T3 (2 nM), insulin (170 nM), rosiglitazone (1 μM), SB413542 (5 uM), IBMX (0.5 mM), dexamethasone (5 μM) and indomethacin (125 μM) in EGM-2 medium (Lonza) supplemented with the BulletKit minus FGF2 (modified from^33). Thereafter, cells are maintained in adipogenic medium without IBMX, dexamethasone and indomethacin. The medium was changed every 3 days and adipocytes were fully differentiated by 9-12 days as determined by lipid accumulation and peak expression of UCP1.
Cell Isolation, Expansion and Differentiation of Interscapular Brown Adipose Tissue Preadipocytes • 1. Prior to adipose cell isolation, warm DMEM, FBS and cell wash buffer to room temperature. • 2. In a laminar flow cabinet for cell culture, place 5 g of adipose tissue on a 100×20 mm dish. Suspend tissue in 1 mL of Adipose Tissue Dissociation Kit enzyme digest cocktail and finely mince with a razorblade. • 3. Transfer cell suspension slurry to a 5 mL polystyrene round bottom tube and add an additional 1.5 mL of enzyme digest cocktail to tube. • 4. Incubate tube at 37° C. on a rotating nutator for 30 minutes. During incubation period, briefly vortex sample for 5 s in 10-minute intervals. • 5. Transfer cells to a 15 mL tube and add 5 mL of DMEM. Filter cell suspension through a 100 μm strainer into a new 15 mL tube and centrifuge at 300 g for 5 minutes to form a pellet. • 6. Remove supernatant and leave behind […] of DMEM. […]

Cc1c[nH]c(-c2cnc(NCCNc3ccc(C#N)cn3)nc2-c2ccc(Cl)cc2Cl)n1 [CHIR]
FOXF1 protein compared to StemDiff MIM (iPSCs; 1.5 μM CHIR in combination with VEGF and BMP4): significant increase
expression of FOXF1 (qPCR) (iPSCs; CHIR raised to 5 μM in combination with BMP4 and VEGF): decrease

C[C@H](Cc1ccc2c(c1)OC(C(=O)[O-])(C(=O)[O-])O2)NC[C@H](O)c1cccc(Cl)c1.[Na+].[Na+] [CL316,243]
effect on UCP1 expression (iPSC-beige adipocytes [1]; during initial differentiation, in the presence of rosiglitazone): masked or inhibitory
UCP1 expression (iPSC-beige adipocytes [1]; during initial differentiation, without rosiglitazone): increased
UCP1 expression (iPSC-beige adipocytes [1]; mature iPSC-beige adipocytes, CL316,243 1 μM, 4 hr): increased expression
fatty acid (FA) uptake (iPSC-beige adipocytes [2]): increased
overall respiration and proton leak (iPSC-beige adipocytes [3]): increased overall respiration and proton leak

B1: IL-4: human IL-4 (Peprotech), used at 10 nM (protein, UniProt P05112 25-153, looked up)
Interleukin-4: HKCDITLQEIIKTLNSLTEQKTLCTELTVTDIFAASKNTTEKETFCRAATVLRQFYSHHEKDTRCLGATAQQFHRHKQLIRFLKRLDRNLWGLAGLNSCPVKEANQSTLENFLERLKTIMREKYSKCSS
transcription of beige adipogenic precursor markers PDGFRα and EBF2 (FD-MSCs): little effect
